# From US7662832B2, “Pyrrolo[2,3-c]pyridine derivatives and processes for the preparation thereof” (priority 2004, dated 2010)
# pIC50: −log10 of the molar value. Structures can show the parent of a compound that is named as a salt.
# Target: Proton Pump (H^+/K^+-ATPase) (Sus scrofa, UniProt P19156)
# Experiment: Inhibitory effects on proton pump (H^+/K^+-ATPase) activity
# Format: biochemical
# Details: hog gastric vesicles; K^+ stimulated H^+/K^+-ATPase activity; 30 minutes at 37° C.
# Proton Pump (H^+/K^+-ATPase), sequence (P19156 2-1034 limits assumed): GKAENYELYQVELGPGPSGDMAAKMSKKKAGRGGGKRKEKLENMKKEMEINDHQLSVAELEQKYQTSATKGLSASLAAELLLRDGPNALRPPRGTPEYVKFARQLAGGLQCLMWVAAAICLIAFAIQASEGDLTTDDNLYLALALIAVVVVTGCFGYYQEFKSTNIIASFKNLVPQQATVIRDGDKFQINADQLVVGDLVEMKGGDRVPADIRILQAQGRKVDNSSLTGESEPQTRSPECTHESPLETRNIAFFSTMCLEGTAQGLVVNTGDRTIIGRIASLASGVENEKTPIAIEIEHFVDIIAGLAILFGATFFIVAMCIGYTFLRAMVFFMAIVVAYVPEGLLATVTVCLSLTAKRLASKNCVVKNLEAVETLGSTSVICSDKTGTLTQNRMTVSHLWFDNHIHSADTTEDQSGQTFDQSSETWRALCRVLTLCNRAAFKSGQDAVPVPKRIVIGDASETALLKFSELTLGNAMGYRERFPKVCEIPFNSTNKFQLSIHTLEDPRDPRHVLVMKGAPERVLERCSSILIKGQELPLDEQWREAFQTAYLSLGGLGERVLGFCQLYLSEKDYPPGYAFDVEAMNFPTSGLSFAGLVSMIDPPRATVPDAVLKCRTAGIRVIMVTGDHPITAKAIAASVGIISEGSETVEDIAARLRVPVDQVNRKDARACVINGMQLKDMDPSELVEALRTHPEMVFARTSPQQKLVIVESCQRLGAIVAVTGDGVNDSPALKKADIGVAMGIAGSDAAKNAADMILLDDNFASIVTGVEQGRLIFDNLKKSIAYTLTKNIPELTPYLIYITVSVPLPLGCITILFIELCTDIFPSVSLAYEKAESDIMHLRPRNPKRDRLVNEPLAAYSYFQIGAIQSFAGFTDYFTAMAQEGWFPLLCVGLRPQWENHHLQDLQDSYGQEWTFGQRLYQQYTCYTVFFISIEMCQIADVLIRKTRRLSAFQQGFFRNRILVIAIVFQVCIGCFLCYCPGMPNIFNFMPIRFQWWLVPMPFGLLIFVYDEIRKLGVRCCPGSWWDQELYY
# Proton Pump (H^+/K^+-ATPase), sequence (P18434 whole entry partner): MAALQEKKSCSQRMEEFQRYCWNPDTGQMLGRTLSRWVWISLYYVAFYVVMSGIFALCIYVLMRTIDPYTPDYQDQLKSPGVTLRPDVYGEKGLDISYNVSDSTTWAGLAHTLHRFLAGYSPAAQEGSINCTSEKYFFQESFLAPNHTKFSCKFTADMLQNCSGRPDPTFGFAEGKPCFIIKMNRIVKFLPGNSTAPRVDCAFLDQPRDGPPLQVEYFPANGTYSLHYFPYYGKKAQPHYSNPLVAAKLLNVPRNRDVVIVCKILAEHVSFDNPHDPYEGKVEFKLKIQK
row,pIC50,Compound
1,7.43,"Cc1cccc(Cn2c(C)c(C)c3cc(C(=O)N4CCN(C)CC4)nc(N4CCc5ccccc5C4)c32)c1 [Example 820, [7-(3,4-dihydro-1H-isoquinolin-2-yl)-2,3-dimethyl-1-(3-methylbenzyl)-1H-pyrrolo[2,3-c]pyridin-5-yl]-(4-methylpiperazin-1-yl)-methanone hydrochloride]"
2,7.59,"COCCn1c(C)c(C)c2cc(C(=O)N3CCN(C)CC3)nc(N3CCc4ccccc4C3)c21 [Example 821, [7-(3,4-dihydro-1H-isoquinolin-2-yl)-1-(2-methoxyethyl)-2,3-dimethyl-1H-pyrrolo[2,3-c]pyridin-5-yl]-(4-methylpiperazin-1-yl)-methanone hydrochloride]"
3,7.64,"COc1cccc(Cn2c(C)c(C)c3cc(C(=O)N4CCNCC4)nc(N4CCc5ccccc5C4)c32)c1 [Example 822, [7-(3,4-dihydro-1H-isoquinolin-2-yl)-1-(3-methoxybenzyl)-2,3-dimethyl-1H-pyrrolo[2,3-c]pyridin-5-yl]-(piperazin-1-yl)-methanone hydrochloride]"
4,6.67,"COc1cccc(Cn2c(C)c(C)c3cc(C(=O)N4CCC(C)CC4)nc(N4CCc5ccccc5C4)c32)c1 [Example 823, [7-(3,4-dihydro-1H-isoquinolin-2-yl)-1-(3-methoxybenzyl)-2,3-dimethyl-1H-pyrrolo[2,3-c]pyridin-5-yl]-(4-methylpiperidin-1-yl)-methanone hydrochloride]"
5,7.48,"CCN1CCN(C(=O)c2cc3c(C)c(C)n(Cc4cccc(OC)c4)c3c(N3CCc4ccccc4C3)n2)CC1 [Example 824, [7-(3,4-dihydro-1H-isoquinolin-2-yl)-1-(3-methoxybenzyl)-2,3-dimethyl-1H-pyrrolo[2,3-c]pyridin-5-yl]-(4-ethylpiperazin-1-yl)-methanone hydrochloride]"
6,7.62,"CCCn1c(C)c(C)c2cc(C(=O)N3CCN(C)CC3)nc(N3CCc4ccccc4C3)c21 [Example 825, [7-(3,4-dihydro-1H-isoquinolin-2-yl)-2,3-dimethyl-1-propyl-1H-pyrrolo[2,3-c]pyridin-5-yl]-(4-methylpiperazin-1-yl)-methanone hydrochloride]"
7,7.80,"CCN1CCN(C(=O)c2cc3c(C)c(C)n(CC)c3c(N3CCc4ccccc4C3)n2)CC1 [Example 826, [7-(3,4-dihydro-1H-isoquinolin-2-yl)-1-ethyl-2,3-dimethyl-1H-pyrrolo[2,3-c]pyridin-5-yl]-(4-ethylpiperazin-1-yl)-methanone hydrochloride]"
8,7.11,"Cc1[nH]c2c(N3CCc4ccccc4C3)nc(C(=O)N3CCN(C)CC3)cc2c1C [Example 827, [7-(3,4-dihydro-1H-isoquinolin-2-yl)-2,3-dimethyl-1H-pyrrolo[2,3-c]pyridin-5-yl]-(4-methylpiperazin-1-yl)-methanone hydrochloride]"
9,7.03,"Cc1ccc(Cn2c(C)c(C)c3cc(C(=O)N4CCN(C)CC4)nc(N4CCc5ccccc5C4)c32)cc1 [Example 828, [7-(3,4-dihydro-1H-isoquinolin-2-yl)-1-(4-methylbenzyl)-2,3-dimethyl-1H-pyrrolo[2,3-c]pyridin-5-yl]-(4-methylpiperazin-1-yl)-methanone hydrochloride]"
10,7.10,"COc1ccc(Cn2c(C)c(C)c3cc(C(=O)N4CCN(C)CC4)nc(N4CCc5ccccc5C4)c32)cc1 [Example 829, [7-(3,4-dihydro-1H-isoquinolin-2-yl)-1-(4-methoxybenzyl)-2,3-dimethyl-1H-pyrrolo[2,3-c]pyridin-5-yl]-(4-methylpiperazin-1-yl)-methanone hydrochloride]"
11,7.36,"Cc1c(C)n(CC2CCC2)c2c(N3CCc4ccccc4C3)nc(C(=O)N3CCN(C)CC3)cc12 [Example 830, [1-cyclobutylmethyl-7-(3,4-dihydro-1H-isoquinolin-2-yl)-2,3-dimethyl-1H-pyrrolo[2,3-c]pyridin-5-yl]-(4-methylpiperazin-1-yl)-methanone hydrochloride]"
12,7.41,"Cc1c(C)n(Cc2ccc(F)cc2)c2c(N3CCc4ccccc4C3)nc(C(=O)N3CCN(C)CC3)cc12 [Example 831, [7-(3,4-dihydro-1H-isoquinolin-2-yl)-1-(4-fluorobenzyl)-2,3-dimethyl-1H-pyrrolo[2,3-c]pyridin-5-yl]-(4-methylpiperazin-1-yl)-methanone hydrochloride]"
13,7.51,"Cc1c(C)n(Cc2cccc(F)c2)c2c(N3CCc4ccccc4C3)nc(C(=O)N3CCN(C)CC3)cc12 [Example 832, [7-(3,4-dihydro-1H-isoquinolin-2-yl)-1-(3-fluorobenzyl)-2,3-dimethyl-1H-pyrrolo[2,3-c]pyridin-5-yl]-(4-methylpiperazin-1-yl)-methanone hydrochloride]"
14,7.37,"Cc1c(C)n(CC(C)C)c2c(N3CCc4ccccc4C3)nc(C(=O)N3CCN(C)CC3)cc12 [Example 833, [7-(3,4-dihydro-1H-isoquinolin-2-yl)-1-isobutyl-2,3-dimethyl-1H-pyrrolo[2,3-c]pyridin-5-yl]-(4-methylpiperazin-1-yl)-methanone hydrochloride]"
15,7.43,"CC(C)=CCn1c(C)c(C)c2cc(C(=O)N3CCN(C)CC3)nc(N3CCc4ccccc4C3)c21 [Example 834, [7-(3,4-dihydro-1H-isoquinolin-2-yl)-2,3-dimethyl-1-(3-methylbut-2-enyl)-1H-pyrrolo[2,3-c]pyridin-5-yl]-(4-methylpiperazin-1-yl)-methanone hydrochloride]"
16,6.87,"Cc1c(C)n(Cc2ccc(C(C)(C)C)cc2)c2c(N3CCc4ccccc4C3)nc(C(=O)N3CCN(C)CC3)cc12 [Example 835, [1-(4-tert-butylbenzyl)-7-(3,4-dihydro-1H-isoquinolin-2-yl)-2,3-dimethyl-1H-pyrrolo[2,3-c]pyridin-5-yl]-(4-methylpiperazin-1-yl)-methanone hydrochloride]"
17,6.89,"Cc1c(C)n(Cc2cccc(Cl)c2)c2c(N3CCc4ccccc4C3)nc(C(=O)N3CCN(C)CC3)cc12 [Example 836, [1-(3-chlorobenzyl)-7-(3,4-dihydro-1H-isoquinolin-2-yl)-2,3-dimethyl-1H-pyrrolo[2,3-c]pyridin-5-yl]-(4-methylpiperazin-1-yl)-methanone hydrochloride]"
18,7.54,"C=CCn1c(C)c(C)c2cc(C(=O)NCCO)nc(N3CCc4ccccc4C3)c21 [Example 837, 1-allyl-7-(3,4-dihydro-1H-isoquinolin-2-yl)-2,3-dimethyl-N-(2-hydroxyethyl)-1H-pyrrolo[2,3-c]pyridin-5-carboxamide hydrochloride]"
19,6.59,"Cc1c(C)n(Cc2ccccc2)c2c(N3CCc4ccccc4C3)nc(C(=O)n3ccnc3)cc12 [Example 839, [1-benzyl-7-(3,4-dihydro-1H-isoquinolin-2-yl)-2,3-dimethyl-1H-pyrrolo[2,3-c]pyridin-5-yl]-(imidazol-1-yl)-methanone hydrochloride]"
20,6.77,"Cc1c(C)n(Cc2cccc(F)c2)c2c(N3CCc4ccccc4C3)nc(C(=O)n3ccnc3)cc12 [Example 840, [7-(3,4-dihydro-1H-isoquinolin-2-yl)-1-(3-fluorobenzyl)-2,3-dimethyl-1H-pyrrolo[2,3-c]pyridin-5-yl]-(imidazol-1-yl)-methanone hydrochloride]"
21,6.62,"COc1cccc(Cn2c(C)c(C)c3cc(C(=O)n4ccnc4)nc(N4CCc5ccccc5C4)c32)c1 [Example 841, [7-(3,4-dihydro-1H-isoquinolin-2-yl)-1-(3-methoxybenzyl)-2,3-dimethyl-1H-pyrrolo[2,3-c]pyridin-5-yl]-(imidazol-1-yl)-methanone hydrochloride]"
22,6.32,"COCCn1c(C)c(C)c2cc(C(=O)n3ccnc3)nc(N3CCc4ccccc4C3)c21 [Example 842, [7-(3,4-dihydro-1H-isoquinolin-2-yl)-1-(2-methoxyethyl)-2,3-dimethyl-1H-pyrrolo[2,3-c]pyridin-5-yl]-(imidazol-1-yl)-methanone hydrochloride]"
23,6.54,"Cc1c(C)n(Cc2cccc(Cl)c2)c2c(N3CCc4ccccc4C3)nc(N)cc12 [Example 845, 1-(3-chlorobenzyl)-7-(3,4-dihydro-1H-isoquinolin-2-yl)-2,3-dimethyl-1H-pyrrolo[2,3-c]pyridin-5-amine hydrochloride]"
24,6.86,"C=CCn1c(C)c(C)c2cc(N)nc(N3CCc4ccccc4C3)c21 [Example 846, 1-allyl-7-(3,4-dihydro-1H-isoquinolin-2-yl)-2,3-dimethyl-1H-pyrrolo[2,3-c]pyridin-5-amine hydrochloride]"
25,7.21,"Cc1c(C)n(Cc2cccc(F)c2)c2c(N3CCc4ccccc4C3)nc(N)cc12 [Example 847, 7-(3,4-dihydro-1H-isoquinolin-2-yl)-1-(3-fluorobenzyl)-2,3-dimethyl-1H-pyrrolo[2,3-c]pyridin-5-amine hydrochloride]"
26,7.54,"COc1cccc(Cn2c(C)c(C)c3cc(N)nc(N4CCc5ccccc5C4)c32)c1 [Example 848, 7-(3,4-dihydro-1H-isoquinolin-2-yl)-1-(3-methoxybenzyl)-2,3-dimethyl-1H-pyrrolo[2,3-c]pyridin-5-amine hydrochloride]"
27,6.89,"CCn1c(C)c(C)c2cc(N)nc(N3CCc4ccccc4C3)c21 [Example 849, 7-(3,4-dihydro-1H-isoquinolin-2-yl)-1-ethyl-2,3-dimethyl-1H-pyrrolo[2,3-c]pyridin-5-amine hydrochloride]"
28,7.28,"Cc1c(C)n(Cc2ccccc2)c2c(N3CCc4ccccc4C3)nc(CO)cc12 [Example 850, [1-benzyl-7-(3,4-dihydro-1H-isoquinolin-2-yl)-2,3-dimethyl-1H-pyrrolo[2,3-c]pyridin-5-yl]-methanol hydrochloride]"
29,7.49,"Cc1c(C)n(Cc2cccc(F)c2)c2c(N3CCc4ccccc4C3)nc(CO)cc12 [Example 851, 7-(3,4-dihydro-1H-isoquinolin-2-yl)-1-(3-fluorobenzyl)-2,3-dimethyl-1H-pyrrolo[2,3-c]pyridin-5-yl]-methanol hydrochloride]"
30,6.37,"Cc1c(C)n(Cc2cccc(Cl)c2)c2c(N3CCc4ccccc4C3)nc(-c3nnn[nH]3)cc12 [Example 852, 2-[1-(3-chlorobenzyl)-2,3-dimethyl-5-(1H-tetrazol-5-yl)-1H-pyrrolo[2,3-c]pyridin-7-yl]-1,2,3,4-tetrahydroisoquinoline]"
